Assays:
[1] = target: human metabotropic glutamate receptor mGluR2 (Homo sapiens (Human), UniProt Q14416); experiment: [35S]GTPγS binding test, mGluR2; type: biochemical; settings: inhibition of glutamate (20 μM)-stimulated [35S]GTPγS specific binding, CHO cell membranes
Method: (§1) Test 1 [^35S]GTPγS binding test
(§2) CHO cells stably expressing human metabotropic glutamate receptors mGluR2 and mGluR3 were cultured at 37° C. under 5% CO2 using a Dulbecco's modified Eagle medium [1% proline, 1 mM sodium pyruvate, 1 mM succinic acid, 1 mM disodium succinate, 100 units/mL penicillin, 100 μg/mL streptomycin, 400 (mGluR2) or 300 (mGluR3) μg/mL hygromycin B, 2 mM L-glutamine (added just before use)] containing 10% dialyzed fetal bovine serum. The cells in a confluent state were washed with PBS(−), then dissociated using a cell scraper, and centrifuged at 1000 rpm for 5 minutes at 4° C. to recover the cells. The obtained pellet was suspended in a 20 mM HEPES buffer (pH 7.4) (mGluR2) or 20 mM HEPES buffer containing 1 mM EDTA (pH 7.4) (mGluR3), and the suspension was homogenized in a Teflon® homogenizer and then centrifuged at 48,000×g for 20 minutes at 4° C. to obtain a pellet again. The obtained pellet was subjected to two additional cycles of washing and centrifugation and then homogenized with the buffer described above to obtain a crude membrane fraction. The crude membrane fraction was diluted with a buffer for a binding test (final concentration: 20 mM HEPES, 100 mM NaCl, 10 mM MgCl2, 10 μM GDP, […], 0.1% BSA) (mGluR2) or (final concentration: 20 mM HEPES, 1 mM EDTA, 100 mM NaCl, 10 mM MgCl2, 10 μM GDP, 10 μg/mL saponin, 0.1% BSA) (mGluR3). To the crude membrane fraction containing 10 μg of membrane proteins/assay, Compounds (II)-1 to (II)-15 were each added, and the mixture was incubated at 30° C. for 20 minutes. Then, glutamate (final concentration: 20 (mGluR2) or 1 (mGluR3) μM) and [^35S]GTPγS (final concentration: 0.15 nM) were added thereto, and the mixture was incubated at 30° C. for 1 hour. The solution thus incubated was filtered by suction onto Whatman GF/C filter, and the filter was washed with 1000 μL of an ice-cooled 20 mM HEPES buffer (pH 7.4) (mGluR2) or 20 mM HEPES buffer containing 1 mM EDTA (pH 7.4) (mGluR3). A scintillation cocktail was added to the obtained filter, and the membrane binding radioactivity was measured using a liquid scintillation counter. The residual radioactivity in the absence of glutamate was defined as nonspecific binding, and the difference from the residual radioactivity in the presence of glutamate was defined as specific binding. From the percent inhibition of specific binding at varying concentrations of Compounds (II)-1 to (II)-15, an inhibition curve was obtained using nonlinear analysis. The concentrations at which Compounds (II)-1 to (II)-15 inhibited 50% of specific binding (IC50) were calculated from the inhibition curve.

mGlu2 receptor = mGlu2 receptor (Homo sapiens (Human), UniProt Q14416); settings: reported in literature; cited from earlier work
[2] = target: human metabotropic glutamate receptor mGluR3 (Homo sapiens (Human), UniProt Q14832); experiment: [35S]GTPγS binding test, mGluR3; type: biochemical; settings: inhibition of glutamate (1 μM)-stimulated [35S]GTPγS specific binding, CHO cell membranes
Method: as §1, §2

mGlu3 receptor = mGlu3 receptor (Homo sapiens (Human), UniProt Q14832); settings: reported in literature; cited from earlier work
mice = settings: cited from earlier work
rats = settings: 1 mg/kg; cited from earlier work

Chain of human metabotropic glutamate receptor mGluR2 (Q14416 19-872): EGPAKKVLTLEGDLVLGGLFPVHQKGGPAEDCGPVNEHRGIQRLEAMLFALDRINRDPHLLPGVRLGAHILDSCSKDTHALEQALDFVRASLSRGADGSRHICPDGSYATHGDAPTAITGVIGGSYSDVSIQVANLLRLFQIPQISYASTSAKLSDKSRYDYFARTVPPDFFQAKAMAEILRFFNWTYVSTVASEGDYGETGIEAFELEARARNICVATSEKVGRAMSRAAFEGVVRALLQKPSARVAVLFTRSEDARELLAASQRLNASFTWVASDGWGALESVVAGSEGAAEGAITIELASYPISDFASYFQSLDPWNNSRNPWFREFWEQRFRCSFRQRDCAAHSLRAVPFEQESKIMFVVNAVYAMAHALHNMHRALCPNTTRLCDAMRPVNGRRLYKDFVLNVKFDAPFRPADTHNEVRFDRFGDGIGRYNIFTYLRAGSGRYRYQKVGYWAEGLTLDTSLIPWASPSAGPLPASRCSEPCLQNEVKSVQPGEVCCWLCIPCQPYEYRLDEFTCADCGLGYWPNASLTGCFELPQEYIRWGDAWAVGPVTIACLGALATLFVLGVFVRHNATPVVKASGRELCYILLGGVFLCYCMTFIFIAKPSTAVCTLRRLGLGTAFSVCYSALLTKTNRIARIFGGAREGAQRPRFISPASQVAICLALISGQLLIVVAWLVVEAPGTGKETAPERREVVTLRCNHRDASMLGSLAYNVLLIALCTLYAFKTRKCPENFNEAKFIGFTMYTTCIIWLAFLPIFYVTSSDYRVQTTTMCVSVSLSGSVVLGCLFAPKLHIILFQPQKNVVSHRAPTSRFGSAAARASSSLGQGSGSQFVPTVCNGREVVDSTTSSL
Chain of mGlu2 receptor (Q14416 19-872): as above
Chain of human metabotropic glutamate receptor mGluR3 (Q14832 23-879): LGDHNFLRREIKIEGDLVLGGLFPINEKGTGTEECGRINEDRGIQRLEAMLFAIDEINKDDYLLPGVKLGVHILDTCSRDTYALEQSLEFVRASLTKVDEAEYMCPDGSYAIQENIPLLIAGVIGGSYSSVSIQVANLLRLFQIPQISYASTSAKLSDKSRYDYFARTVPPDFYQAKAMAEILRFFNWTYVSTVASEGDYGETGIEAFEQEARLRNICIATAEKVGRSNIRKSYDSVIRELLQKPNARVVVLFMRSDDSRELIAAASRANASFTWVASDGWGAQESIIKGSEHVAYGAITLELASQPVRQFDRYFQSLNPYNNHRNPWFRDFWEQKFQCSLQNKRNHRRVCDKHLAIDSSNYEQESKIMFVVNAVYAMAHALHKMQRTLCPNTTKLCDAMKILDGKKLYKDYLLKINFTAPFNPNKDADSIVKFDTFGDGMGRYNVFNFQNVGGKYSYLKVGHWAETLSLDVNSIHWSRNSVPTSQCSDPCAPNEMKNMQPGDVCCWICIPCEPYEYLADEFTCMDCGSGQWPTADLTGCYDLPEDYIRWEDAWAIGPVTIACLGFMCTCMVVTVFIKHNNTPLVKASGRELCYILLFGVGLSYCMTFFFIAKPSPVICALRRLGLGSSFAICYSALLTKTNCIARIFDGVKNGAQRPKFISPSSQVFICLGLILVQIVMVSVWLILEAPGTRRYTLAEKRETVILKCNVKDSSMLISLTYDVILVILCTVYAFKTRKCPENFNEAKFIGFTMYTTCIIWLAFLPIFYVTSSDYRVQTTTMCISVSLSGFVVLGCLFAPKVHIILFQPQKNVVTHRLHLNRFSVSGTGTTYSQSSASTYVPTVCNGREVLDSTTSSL
Chain of mGlu3 receptor (Q14832 23-879): as above

Structure (SMILES)	IC50 [1] [nM]	antagonistic activity (mGlu2 receptor) (mGlu2 receptor) [nM]	IC50 [2] [nM]	antagonistic activity (mGlu3 receptor) (mGlu3 receptor) [nM]	immobility time in the tail suspension test (mice)	immobility time in the forced swimming test (rats)
N[C@]1(C(=O)O)[C@H]2[C@@H](C[C@H]1OCc1ccc(F)cc1)[C@]2(F)C(=O)O [Compound (II)-1, (1R,2R,3R,5R,6R)-2-amino-6-fluoro-3-[(4-fluorophenyl)methoxy]bicyclo[3.1.0]hexane-2,6-dicarboxylic acid]	36.1	≤ 500	36.4			
N[C@]1(C(=O)O)[C@H]2[C@@H](C[C@H]1OCc1ccc(F)c(F)c1)[C@]2(F)C(=O)O [Compound (II)-2, (1R,2R,3R,5R,6R)-2-amino-3-[(3,4-difluorophenyl)methoxy]-6-fluorobicyclo[3.1.0]hexane-2,6-dicarboxylic acid]	18.8	≤ 500	14.8			
CCCO[C@@H]1C[C@@H]2[C@H]([C@]1(N)C(=O)O)[C@@]2(F)C(=O)O [Compound (II)-3, (1R,2R,3R,5R,6R)-2-amino-6-fluoro-3-propoxybicyclo[3.1.0]hexane-2,6-dicarboxylic acid]	75.1	≤ 500	321			
N[C@]1(C(=O)O)[C@H]2[C@@H](C[C@H]1OCc1ccc(F)c(F)c1)[C@@H]2C(=O)O [Compound (II)-14, (1S,2R,3R,5R,6S)-2-amino-3-[(3,4-difluorophenyl)methoxy]bicyclo[3.1.0]hexane-2,6-dicarboxylic acid]	30.1		15.2			
N[C@]1(C(=O)O)[C@H]2[C@@H](C[C@H]1OCc1ccc(F)cc1)[C@@H]2C(=O)O [Compound (II)-15, (1S,2R,3R,5R,6S)-2-amino-3-[(4-fluorophenyl)methoxy]bicyclo[3.1.0]hexane-2,6-dicarboxylic acid]	32.7		60.5			
N[C@]1(C(=O)O)[C@H]2[C@@H](C[C@H]1OCc1ccc(Cl)c(Cl)c1)[C@]2(F)C(=O)O [MGS0039]		20		24	shortens immobility time	sufficient to suppress immobility time
